Assay results taken from patent publication US11911396B2, “Use of compound in preparation of drug for treating cerebral small vessel disease” (GUANGZHOU CELLPROTEK PHARMACEUTICAL CO., LTD, priority 2017, dated 2024).

How the values were obtained:
CD163 = experiment: Immunofluorescence of CD163 in prefrontal cortex brain tissue, acute hypobaric hypoxia model; format: in vivo, cynomolgus monkeys; conditions: FIGS. 5A and 5B
Description: (§1) FIG. 5. […] A. Immunofluorescence imaging of CD163 and Iba-1 in the brain tissue of cynomolgus monkeys. B. Statistics of relative fluorescence intensity of CD163 and Iba-1. C. Correlation analysis of relative fluorescence intensity of CD163 and Iba-1. NN: Normobaric Normoxia group; HH: Hypobaric Hypoxia group; HH+Triol: Hypobaric Hypoxia with Triol administration group; HH+PROG: Hypobaric Hypoxia with progesterone administration group. One-way ANOVA analysis and Dunnutt's t test were used to perform statistical tests, and in the latter each group was compared with the HH group, ***, p<0.001.
(§2) The thickness of paraffin sections was 5 μm. For fresh paraffin sections, the sections were dried at 37° C. overnight and then dried at 55° C. for 30 minutes. The sections were quickly placed in xylene for dewaxing. After fully dewaxing with xylene for 10 min for 3 times, absolute ethanol-95% ethanol-90% ethanol-80% ethanol-70% ethanol-50% ethanol-ddH2O were successively used for gradient rehydration. After rehydration, the sections were placed in EDTA antigen repair solution for microwave high temperature repair. After the repair was completed, it was allowed naturally cool down to room temperature. […] NIS-Elements Analysis software was used to analyze the fluorescence intensity of confocal images, which was then normalized with the fluorescence intensity per unit area according to the built-in scale. […]

Iba1 = experiment: Immunofluorescence of Iba1 in prefrontal cortex brain tissue, acute hypobaric hypoxia model; format: in vivo, cynomolgus monkeys; conditions: FIG. 5
Description: as §1, §2

Question: For CC(=O)[C@H]1CC[C@H]2[C@@H]3CCC4=CC(=O)CC[C@]4(C)[C@H]3CC[C@]12C [progesterone, reference compound], which “down-regulation of CD163 expression caused by acute hypobaric hypoxia” value (CD163) is on record?
Answer: The value was “did not cancel the inhibition”.

Question: And the Iba1 expression (Iba1)?
Answer: The Iba1 expression was “increased”.
